Columns and labels:
dopaminergic neurons = test: Primary midbrain culture, tyrosin hydroxylase staining and counting of dopaminergic neurons; format: cell-based, mice
Procedure: (§1) The experiments were carried out with the human neuroblastoma cell line (SH-SY5Y-cells) and with a cell culture of primary nerve cells from the mice embryo midbrain. […] Moreover, the mentioned compounds induce in the primary culture from the mice embryo midbrain the generation of new, differentiated and functional dopaminergic neurons.
To this aim midbrain cultures were prepared and kept for 10-12 days (DIV=Days in vitro) in an appropriate medium to accustom to in vitro conditions. Then 9-methyl-β-carboline was added in increasing concentrations and it was waited for 48 hours. Dopaminergic neurons were identified by staining with tyrosin hydroxylase. This enzyme occurs only in dopaminergic midbrain neurons. The number of dopaminergic neurons can be counted reliably with this method. In addition, hints can be obtained whether the dopaminergic neurons are mature or if they are precursor cells. The mature cells have characteristic extensions which also contain tyrosin hydroxylase.

[1] = test system: midbrain cells in culture; test: ATP content of midbrain culture; format: cell-based, mice; conditions: 50 μM, 48 hours
Procedure: FIG. 4c ATP concentration (ATP content) after incubation with 50 μM 9-methyl-β-carboline (9-Me-BV) for 48 hours 10 DIV-12 DIV.
(§2) In 48 hours about 20% of the cells in culture died. In cultures with a 9-Alkyl-β-carboline only about 10% of the cells died under the same conditions (FIG. 4b). Thus, the findings are in line with the LDH findings. ATP provides the cell with energy. […] The enzyme caspase-3 is an indicator for apoptosis. After 24 hours, the enzyme activity was reduced which hints at a reduction of apoptotic processes, after 48 hours, however, it was increased (FIG. 4d). The last finding hints at a switch of culture cells from reduced necrosis to apoptosis, thus a more precise regulation of cell death.

caspase-3 = test: Activity of the apoptosis enzyme caspase-3 in midbrain culture; format: cell-based, mice; conditions: 50 μM
Procedure: FIG. 4d Activity of the apoptosis enzyme caspase-3 during and after incubation with 50 μM 9-methyl-β-carboline for 48 hours 10 DIV-12 DIV.
as §2

[2] = test system: human neuroblastoma cell line (SH-SY5Y-cells); test: Differentiation and proliferation (bromodeoxyuridine incorporation) of human neuroblastoma cells; format: cell-based
Procedure: FIG. 5 Percentage of BrdU-positive cells of human neuroblastoma cells after incubation with 50 μM 9-methyl-β-carboline for 48 hours 10 DIV-12 DIV.
FIG. 6 Evidence of the reduction of cell proliferation by incorporation of bromodeoxyuridine into the cell nucleus chromatin.
as §1
The question whether 9-Alkyl-β-carboline derivatives lead to the differentiation of neurons is of outstanding importance.
This cell line has many characteristics which dopaminergic neurons have as well. […] So this confirms the observations in the primary midbrain cultures that 9-methyl-β-carboline promotes the differentiation and thus the maturation of neuronal cells (FIG. 1a and FIG. 1b).
Cell proliferation can be measured by the incorporation of bromodeoxyuridine. […] This hints at a reduction of cell proliferation. This finding also supports the other findings that 9-alkyl-β-carboline derivatives promote cell differentiation.

[3] = test system: undifferentiated multipotent neuronal precursor cells from the midbrain of mouse embryos; test: Differentiation of multipotent neuronal precursor cells with compound in culture medium; format: cell-based; conditions: 50 μM final concentration once per week
Procedure: To verify if 9-methyl-β-carboline increases the efficiency of culture media for the experiments with neurons and for tissue engineering, pilot experiments were carried out by way of example with undifferentiated multipotent neuronal precursor cells from the midbrain of mouse embryos (embryonic day 14). By suitable cultivation procedures a cell suspension was produced which was kept for four weeks in a medium that contained, inter alia, growth factors from fibroblasts and the skin (epidermal growth factor). After this time the neuronal precursor cells were differentiated in a medium to promote the maturation of neurons. After a week, about 40% of the cells could be stained by a neuronal marker (β-tubulin, type III). Most other cells were glial cells. A small percentage of the neurons could be colored additionally with the antibody for tyrosin hydroxylase (˜3%). This means that about three percent of the neurons were from the dopaminergic cell type. The enzyme tyrosin hydroxylase can only be found in the midbrain in dopaminergic neurons.
Under corresponding conditions 9-methyl-β-carboline (50 μM final concentration) were added to the culture medium once per week, also once to the differentiation medium. […]

[4] = test system: dopamine concentration in the striatum; test: Chronic MPP+ infusion model of Parkinson's disease, dopamine concentration in the striatum; format: in vivo, rat; conditions: rat
From the text: In the diagram the dopamine (DA) levels of the left and right striatum of the single rats are indicated.
(§3) To investigate Parkinson's disease acute in vivo models are used for years although chronic models would be a better model for the disease. Another disadvantage of the acute models is that ca. 40% of the animals die from the application of the neurotoxin. Therefore, we have chosen a chronic model in which comparably very low doses of neurotoxin 1-methyl-4-phenylpyridinium (MPP^+) were infused for 28 days into the left lateral ventricle of the rat brain. The substance was continuously applied through osmotic minipumps. Thereby, casualties were completely avoided. After four weeks, either solvent or equimolar amounts of the sample substance, namely neuroprotective betacarboline, resp. 9-alkyl-betacarboline was infused for two weeks via the same catheter. In a preliminary study for dose-finding the MPP^+ dose which leads to a reduction by 40% of the dopamine concentration in the striatum was determined. The dopamine concentration in the striatum is a characteristic marker for Parkinson's disease in which a degeneration of dopaminergic neurons occurs.
The compounds A to L were tested as described in example 8. The test results of the compounds A to L are indicated in the following table in comparison to 9-methyl-β-carboline.

[5] = test system: brain-derived neurotrophic factor (BDNF); test: PCR superarray of RNA from the striata of MPP+ rats: BDNF; format: in vivo, rat
From the text: as §3
An explanation for the effect of the betacarboline was found in the tests of the RNA from the striata of these rats through the PCR superarray method. Accordingly, the betacarboline activates the generation of neurotrophins, thus proteins produced naturally in the body, which are responsible for the growth and differentiation of neurons. […]

Structure (SMILES): Cn1c2ccccc2c2ccncc21 [9-methyl-β-carboline]
- increase in dopaminergic neurons after inactivation of the dopamine transporter DAT (dopaminergic neurons; 50 μM 9-Me-BC with DAT inhibitor GBR12909, 48 hours): does not occur
- cellular extensions and branching of dopaminergic neurons (dopaminergic neurons; 50 μM, 48 hours, vs control without compound): significantly more cellular extensions
- number of dopaminergic neurons (dopaminergic neurons; 10-200 μM, 48 hours, 10 DIV-12 DIV, increase up to ca. 100 μM): increased dose-dependently
- concentration of ATP [1]: increased
- caspase-3 enzyme activity (caspase-3; after 24 hours): reduced
- caspase-3 enzyme activity (caspase-3; after 48 hours): increased
- installation of bromodeoxyuridine into the chromatin in the cell nucleus ([2]; 50 μM, 48 hours, BrdU-positive cells): decreases
- cellular extensions of neuroblastoma cells ([2]; human neuroblastoma cells): growth of cellular extensions
- proliferation of neuroblastoma cells vs control cells ([2]; human neuroblastoma cells): proliferate less than control cells
- increase of percentage of dopaminergic cells [3]: 25%
- increase of amount of neurons compared to control conditions ([3]; 3 independent experiments): 15%
- dopamine concentration in the left striatum ([4]; 4 weeks MPP+ then 2 weeks compound (equimolar, 0.105 mg/kg/day) into left ventricle): normalized
- effect in an established model of Parkinson's disease ([4]; chronic MPP+ model): neuroprotective effect
- increase of BDNF compared to rats infused solvent only for six weeks ([5]; left striatum): 4.9 times
- increase of BDNF compared to rats infused solvent only for six weeks ([5]; right striatum): 8.5 times
